Experimental findings from ChEMBL document CHEMBL1201862, “PubChem BioAssay data set” (2004) are described below.

The structures appear in SMILES notation. Calls of active or inactive are those of the source.

As usually defined, the CC50 is the concentration at which the toxic effect on the cells reaches its halfway point. A word on the EC50: it is the concentration at which the effect is half-maximal. As a reminder, the AC50 is the midpoint of the concentration-response curve, whichever way the signal moves.

Assay [1] deals with T1, Polyadenylate-binding protein 1 (Homo sapiens, UniProt P11940). Briefly: MLLE domain peptide-binding blockers, IC50 – biochemical, fluorescence polarization, FITC-PAM2 peptide, dose response (AID 602259). It counts as functional. The settings on record: read-out: IC50_Mean. (In general: Polarisation of emitted light reports the rotation of a fluorescent probe.)
T1 sequence (P11940 whole entry, the tested form may be a part): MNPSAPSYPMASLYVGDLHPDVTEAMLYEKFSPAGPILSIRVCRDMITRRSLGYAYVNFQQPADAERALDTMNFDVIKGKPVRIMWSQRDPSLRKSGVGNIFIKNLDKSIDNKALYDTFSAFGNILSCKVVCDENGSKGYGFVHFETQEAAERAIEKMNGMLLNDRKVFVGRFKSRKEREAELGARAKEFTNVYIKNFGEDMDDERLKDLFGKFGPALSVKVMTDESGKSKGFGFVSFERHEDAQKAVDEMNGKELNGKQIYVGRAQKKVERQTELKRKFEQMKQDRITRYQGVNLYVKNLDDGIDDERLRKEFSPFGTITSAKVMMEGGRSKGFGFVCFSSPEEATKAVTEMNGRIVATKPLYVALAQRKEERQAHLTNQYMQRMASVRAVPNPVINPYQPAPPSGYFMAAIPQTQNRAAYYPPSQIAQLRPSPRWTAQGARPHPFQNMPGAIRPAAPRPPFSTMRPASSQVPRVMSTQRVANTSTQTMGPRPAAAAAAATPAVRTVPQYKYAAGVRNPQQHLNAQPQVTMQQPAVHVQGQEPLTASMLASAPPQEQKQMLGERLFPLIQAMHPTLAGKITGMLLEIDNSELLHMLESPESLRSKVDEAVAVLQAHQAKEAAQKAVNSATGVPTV
The target in assay [2] is T1, Polyadenylate-binding protein 1. In words: MLLE binding blockers, Cy5 peptide tracer – biochemical, fluorescence polarization, Cy5-PAM2 peptide, secondary, miRNA deadenylation inhibitor project, dose response (AID 602260). In kind it is functional. The settings on record: read-out: IC50_Mean.
The next assay has as its target T2, Leucine aminopeptidase (Plasmodium falciparum 3D7, UniProt Q8IL11).
T2 sequence (Q8IL11 whole entry): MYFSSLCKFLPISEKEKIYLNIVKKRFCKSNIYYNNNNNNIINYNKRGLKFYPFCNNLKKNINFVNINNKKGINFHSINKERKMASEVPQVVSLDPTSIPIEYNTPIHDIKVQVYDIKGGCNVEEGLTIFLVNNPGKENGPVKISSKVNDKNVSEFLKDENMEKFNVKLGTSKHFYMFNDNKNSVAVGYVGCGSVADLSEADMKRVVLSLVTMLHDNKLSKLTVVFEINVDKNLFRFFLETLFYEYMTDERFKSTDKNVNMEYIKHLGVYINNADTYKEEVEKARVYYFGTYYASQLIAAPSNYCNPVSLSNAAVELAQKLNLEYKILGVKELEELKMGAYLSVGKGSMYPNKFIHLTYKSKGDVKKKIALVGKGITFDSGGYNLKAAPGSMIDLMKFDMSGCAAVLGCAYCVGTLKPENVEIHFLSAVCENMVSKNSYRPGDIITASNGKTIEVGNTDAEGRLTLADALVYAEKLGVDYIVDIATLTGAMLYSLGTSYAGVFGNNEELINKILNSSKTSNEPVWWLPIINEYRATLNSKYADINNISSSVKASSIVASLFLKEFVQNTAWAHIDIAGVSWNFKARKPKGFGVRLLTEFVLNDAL
Briefly: P. falciparum M17LAP inhibitors, primary screen, biochemical, fluorogenic H-Leu-NHMec substrate, 1536-well (AID 1619). It counts as functional.

The nature of assay [3]: viability of uninfected HEp-2 cells – cell-based, HTS, cytotoxicity control for RSV inhibitor project, dose response (AID 2410). In kind it is functional. The settings on record: human respiratory syncytial virus.
Assay [4] has as its target T3, Short transient receptor potential channel 4 (Mus musculus, UniProt Q9QUQ5).
T3 sequence (Q9QUQ5 whole entry): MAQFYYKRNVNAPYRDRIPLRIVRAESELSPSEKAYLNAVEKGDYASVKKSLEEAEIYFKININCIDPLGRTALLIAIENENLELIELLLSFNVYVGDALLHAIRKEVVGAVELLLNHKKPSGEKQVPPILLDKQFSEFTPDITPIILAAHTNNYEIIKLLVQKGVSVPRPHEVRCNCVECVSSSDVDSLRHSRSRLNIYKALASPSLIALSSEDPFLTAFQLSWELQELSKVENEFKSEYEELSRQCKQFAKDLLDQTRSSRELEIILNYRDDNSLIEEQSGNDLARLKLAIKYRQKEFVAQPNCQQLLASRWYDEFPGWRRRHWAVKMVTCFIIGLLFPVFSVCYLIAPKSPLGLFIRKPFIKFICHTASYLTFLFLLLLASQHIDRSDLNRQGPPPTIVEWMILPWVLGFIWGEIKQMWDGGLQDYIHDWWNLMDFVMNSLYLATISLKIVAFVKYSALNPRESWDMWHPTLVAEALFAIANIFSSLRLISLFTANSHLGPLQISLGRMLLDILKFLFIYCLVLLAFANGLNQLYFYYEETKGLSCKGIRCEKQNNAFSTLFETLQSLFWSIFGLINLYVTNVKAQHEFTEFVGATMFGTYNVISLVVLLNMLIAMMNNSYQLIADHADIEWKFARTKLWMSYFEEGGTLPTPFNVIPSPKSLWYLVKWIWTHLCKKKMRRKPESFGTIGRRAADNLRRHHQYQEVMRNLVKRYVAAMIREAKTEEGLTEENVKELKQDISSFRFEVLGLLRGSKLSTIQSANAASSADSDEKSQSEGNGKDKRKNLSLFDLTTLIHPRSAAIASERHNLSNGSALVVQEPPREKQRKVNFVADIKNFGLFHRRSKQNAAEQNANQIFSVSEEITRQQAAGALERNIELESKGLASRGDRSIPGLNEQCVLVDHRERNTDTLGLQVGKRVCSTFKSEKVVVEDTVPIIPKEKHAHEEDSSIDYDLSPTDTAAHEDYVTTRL
Briefly: calcium entry via TRPC4 opening agents – cell-based, HEK293 TRPC4/mu-opioid, Fluo-4 calcium, dose response (AID 434937). In kind it is functional.

Assay [5] is described as follows: Trypanosoma cruzi growth suppression in host cells – NIH3T3 host cells, beta-gal luminescence, confirmation (AID 2044).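 Note: intracellular parasites grown in NIH/3T3 mouse fibroblasts as host cells; luminescent beta-galactosidase reporter signal from transgenic T. cruzi replicating inside host cells; inhibitors lower the luminescence signal.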 It counts as functional, cell-based.
Assay [6] can be described thus: NIH3T3 cell viability loss – ATP luminescence, mouse fibroblasts, counter-screen, dose response (AID 2010).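 Note: cells exposed to compound for about 90 hours before reading.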 It counts as functional, cell-based. On the technique in general: A counterscreen serves to expose hits that act by an unwanted route or on another target.
The next assay is described as follows: cells. It counts as functional.
Assay [7] deals with T4, Zinc finger protein mex-5 (Caenorhabditis elegans, UniProt Q9XUB2).
T4 sequence (Q9XUB2 whole entry): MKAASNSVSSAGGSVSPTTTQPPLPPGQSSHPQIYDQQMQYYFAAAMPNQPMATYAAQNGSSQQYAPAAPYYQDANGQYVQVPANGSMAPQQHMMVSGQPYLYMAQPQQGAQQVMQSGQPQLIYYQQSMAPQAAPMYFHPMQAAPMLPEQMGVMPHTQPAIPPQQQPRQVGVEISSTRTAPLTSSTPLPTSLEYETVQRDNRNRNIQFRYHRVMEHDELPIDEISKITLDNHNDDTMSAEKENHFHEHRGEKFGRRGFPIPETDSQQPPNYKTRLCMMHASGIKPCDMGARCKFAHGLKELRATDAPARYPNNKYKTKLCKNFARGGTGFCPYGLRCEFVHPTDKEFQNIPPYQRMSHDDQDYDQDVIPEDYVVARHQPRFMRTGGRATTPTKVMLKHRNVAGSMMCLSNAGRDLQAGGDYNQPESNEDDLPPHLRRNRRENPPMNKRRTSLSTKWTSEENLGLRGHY
In words: potency of MEX-5 RNA-binding blockers – biochemical, C. elegans, fluorescence polarization, dose response (AID 1960).

In assay [8] the target is T5, RNA-binding protein pos-1 (Caenorhabditis elegans, UniProt G5EF15).
T5 sequence (G5EF15 whole entry): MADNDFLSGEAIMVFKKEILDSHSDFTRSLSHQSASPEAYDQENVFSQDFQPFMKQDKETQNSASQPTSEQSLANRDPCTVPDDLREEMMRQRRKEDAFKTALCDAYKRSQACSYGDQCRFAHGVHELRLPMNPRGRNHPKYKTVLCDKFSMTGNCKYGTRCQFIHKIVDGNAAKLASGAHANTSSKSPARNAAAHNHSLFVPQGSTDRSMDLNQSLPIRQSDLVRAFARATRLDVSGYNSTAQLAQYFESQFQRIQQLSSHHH
In words: disruptors of C. elegans POS-1 RNA interaction – biochemical, fluorescence polarization, dose response (AID 1964).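 Note: purified POS-1 fused to maltose binding protein made in E. coli; potency of compounds blocking POS-1 binding to fluorescent RNA.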

Assay [9] addresses T3, Short transient receptor potential channel 4. Briefly: block of DAMGO-driven TRPC4 calcium entry – cell-based, HEK293 TRPC4/mu-opioid, Fluo-4 calcium, dose response (AID 434942).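 Note: potency of inhibitors blocking the TRPC4 calcium response.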 In kind it is functional.
Assay [10] deals with FAD-linked sulfhydryl oxidase ALR (Homo sapiens, UniProt P55789). In words: ALR-catalysed DTT oxidation blockers – biochemical, H2O2 detection, luminescence, cherry-pick, dose response (AID 493248).
FAD-linked sulfhydryl oxidase ALR, sequence (P55789 whole entry): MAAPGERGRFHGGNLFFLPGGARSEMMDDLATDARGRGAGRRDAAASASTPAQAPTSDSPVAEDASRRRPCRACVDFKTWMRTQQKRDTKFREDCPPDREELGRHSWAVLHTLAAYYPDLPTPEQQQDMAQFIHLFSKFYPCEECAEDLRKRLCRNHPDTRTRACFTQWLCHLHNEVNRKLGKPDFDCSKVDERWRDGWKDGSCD
The subject of assay [11] is Streptococcus sp. 'group A'. In words: Streptococcus pyogenes SK(-)GAS viability under kanamycin – luminescence, BacTiterGlo, confirmation, counter-screen for streptokinase expression inhibitor project, dose response (AID 1900). In kind it is functional, organism-based.
A further assay deals with T6, Streptokinase A (Streptococcus pyogenes serotype M1, UniProt P10520).
T6 sequence (P10520 whole entry): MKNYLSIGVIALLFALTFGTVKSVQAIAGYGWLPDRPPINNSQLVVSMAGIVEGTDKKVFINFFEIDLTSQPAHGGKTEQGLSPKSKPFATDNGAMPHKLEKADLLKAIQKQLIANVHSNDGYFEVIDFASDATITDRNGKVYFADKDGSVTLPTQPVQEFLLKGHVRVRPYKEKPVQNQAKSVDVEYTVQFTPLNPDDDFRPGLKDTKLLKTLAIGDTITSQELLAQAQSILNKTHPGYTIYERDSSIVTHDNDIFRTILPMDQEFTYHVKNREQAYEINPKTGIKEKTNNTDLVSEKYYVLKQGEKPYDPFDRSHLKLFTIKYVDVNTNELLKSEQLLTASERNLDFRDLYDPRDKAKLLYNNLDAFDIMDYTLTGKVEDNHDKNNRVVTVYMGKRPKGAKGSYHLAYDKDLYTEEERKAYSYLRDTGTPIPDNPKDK
In words: viability-normalized secreted streptokinase activity reduction – plasminogen activation absorbance, OD405, dose response (AID 1914).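 Note: secreted streptokinase activity via plasminogen activation per viability signal from cell pellet.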 It counts as functional, Streptococcus pyogenes M1 GAS.

Another assay deals with Streptococcus. Briefly: GAS UMAA2166 growth inhibition – luminescence, BacTiterGlo, counter-screen for streptokinase expression inhibitor project, dose response (AID 1915).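 Note: potency for reduction of bacterial viability or growth.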 In kind it is functional, organism-based.

For the compound `Cc1cc(C)c2c(=O)c(C#N)coc2c1`, the IC50 in assay [1] and in assay [2] was > 66 µM (inactive) each time. For `O/N=C/c1c[nH]c2ccccc12`, on Leucine aminopeptidase, the IC50 was 13.2 µM (active). On to `CC(=O)NC(=S)Nc1cccc2c(C)cc(C)nc12`, for which the CC50 in assay [3] was > 50 µM (active).

Turning to `Cc1ccc(Sc2cc(C(=O)NCCN(C)C)c3ccccc3n2)cc1`, the EC50 in assay [4] is 2.66 µM (active).

Turning to `CC1N(C)c2cc(NC(=O)c3cccs3)c(P(=O)(Nc3ccc([N+](=O)[O-])cc3)N3CCOCC3)cc2C1(C)C` (centres undefined), the EC50 in assay [5] is 1.98 µM (active); in assay [6] it was > 30 µM (not active). The CC50 in assay [3] is 32.1 µM (active). Regarding `COC1=CC(=NCl)C=CC1=NCl`, the IC50 in assay [1] is 49.9 µM (inactive); in assay [2], > 66 µM (inactive). In the case of `Cc1[nH]c2ccccc2c1C(=O)C(C)OC(=O)c1ccc([N+](=O)[O-])o1` (centres undefined), the IC50 in “cells” was < 0.1 µM (active).

In the case of `Cc1cc(C)c(C(=O)COC(=O)c2ccc([N+](=O)[O-])o2)cc1C`, the IC50 in “cells” is 1 µM (active). As to `Nc1cccc2c1C(=O)N(Cc1nnc(-c3ccccc3Br)o1)C2=O`, the EC50 in [7] was 29.4 µM (active); in [8] it was 40 µM (active). Moreover, the IC50 in [1] is 48.1 µM (inactive); in [2], > 66 µM (inactive). On to `O=C1NN(CCO)C(=S)Nc2ccccc21`, for which the IC50 in assay [1] and in assay [2] was > 66 µM (inactive) throughout. For the compound `COc1ccc(CCNC(=O)c2cc(-c3ccc(C)c(C)c3O)[nH]n2)cc1OC`, the CC50 in assay [3] was > 50 µM (active). As to `Oc1cccc(C(=S)N2CCCCC2)c1`, the IC50 in [1] and in [2] was > 66 µM (inactive) each time. `COC(=O)COc1ccc(S(=O)(=O)N2CCCCCC2)cc1`: the IC50 in the assay “cells” was 33.5 µM (active).

With `CN(C)/C=C1\C(=O)N(c2ccc([N+](=O)[O-])cc2)N=C1c1ccccc1`, in assay [3], the CC50 is 31.8 µM (active). Also, the EC50 was 10.6 µM (active) in assay [4] and 15 µM (active) in assay [9]. As for `Cc1ccc(-c2noc(CCCC(=O)Nc3cccnc3)n2)cc1`, the IC50 in “cells” is 37.4 µM (active). In the case of `Cc1ccc([N+](=O)[O-])cc1/N=C(\c1cccc(Br)c1)N1CCOCC1`, the CC50 in assay [3] was 40.2 µM (active). In the case of `CCOC(=O)C1(CCc2ccccc2)CCN(Cc2ccc(O)cc2)CC1`, the EC50 in assay [4] was 5.31 µM (active); in assay [9] it was 2.99 µM (active).

Take `Cc1ccc(-c2csc(N=C(N)N)n2)cc1`: the AC50 in [10] is 1.05 µM (active). Moreover, the CC50 in assay [3] was 46.4 µM (active). For the compound `CCN(CC)C(=O)Oc1ccc2cc(Br)ccc2c1`, in assay [3], the CC50 is 37 µM (active). Take `CC(C)(C)C1CCc2c(C(=O)NNC(=O)CCCC(=O)O)csc2C1` (centres undefined): the IC50 on Leucine aminopeptidase was 11.6 µM (active). Turning to `CCO/C(O)=C/c1nc2ccccc2oc1=O`, the IC50 in the assay “cells” was 2.88 µM (active). On the same count and under the same terms, under `Cc1ccn2nc(S(=O)(=O)Nc3c(F)cccc3F)nc2n1` stands 11.2 µM (active). On to `CC(C)C1OC2c3cccc4cccc(c34)C2N1c1ccccc1` (centres undefined), for which the EC50 was 3.22 µM (active) in [11], 2.61 µM (active) at Streptokinase A and > 150 µM (not active) in the assay with Streptococcus. Also, the IC50 in assay [1] and in assay [2] was > 66 µM (inactive) each time. On to `NC(=O)c1cccc2c1-c1ccccc1/C2=N/NC(N)=S`, for which the IC50 in [1] and in assay [2] was > 66 µM (inactive) in each case.

Turning to `COc1ccccc1N1CCN(/N=C/c2c(C)nn(-c3ccccc3)c2C)CC1`, the IC50 in assay [1] and in assay [2] was > 66 µM (inactive) in each case.
